From patent US5663331A, “Cephalosporin compounds” (Il-Dong Pharm. Co., Ltd., priority 1992, dated 1997) come the findings set out here.

≈ marks a conversion by molar mass, not a printed value.

Holding throughout (format): cell-based
Test [1] relates to Klebsiella pneumoniae ATCC 10031. Briefly: MIC, two-fold dilution method, Klebsiella pneumoniae ATCC 10031. The following applies: 10^6 CFU per ml, 37° C., 18 to 20 hours; for Antibacterial Activity (MIC): Muller Hinton Broth; for MIC: ATCC10031, Muller Hinton Broth, read-out: Antibacterial Activity (MIC). The essentials:
(§1)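 In vitro antibacterial activity uses a two-fold dilution series in Mueller Hinton Broth. Inoculum density is 10^6 CFU per ml, with incubation at 37° C. for 18 to 20 hours.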

Test [2] relates to Staphylococcus aureus ATCC 65389. Briefly: MIC, two-fold dilution method, Staphylococcus aureus ATCC 65389. The following applies: 10^6 CFU per ml, 37° C., 18 to 20 hours; for Antibacterial Activity (MIC): Muller Hinton Broth; for MIC: ATCC65389, Muller Hinton Broth, read-out: Antibacterial Activity (MIC). The method, boiled down: as §1
Test [3] concerns Bacillus subtilis ATCC 6633. Nature of the test: MIC, two-fold dilution method, Bacillus subtilis ATCC 6633. As to conditions: 10^6 CFU per ml, 37° C., 18 to 20 hours; for Antibacterial Activity (MIC): Muller Hinton Broth; for MIC: ATCC6633, Muller Hinton Broth, read-out: Antibacterial Activity (MIC). The method, boiled down: as §1
For test [4], the system named is Esherichia coli ATCC 25922. Briefly: MIC, two-fold dilution method, Esherichia coli ATCC 25922. The following applies: Muller Hinton Broth, 10^6 CFU per ml, 37° C., 18 to 20 hours; for MIC: read-out: Antibacterial Activity (MIC). The method, boiled down:
as §1

Test [5] relates to Pseudomonas aeurginosa NCTC 10490. Briefly: MIC, two-fold dilution method, Pseudomonas aeurginosa NCTC 10490. The following applies: 10^6 CFU per ml, 37° C., 18 to 20 hours; for Antibacterial Activity (MIC): Muller Hinton Broth; for MIC: NCTC10490, Muller Hinton Broth, read-out: Antibacterial Activity (MIC). The essentials:
as §1

The subject of test [6] is Streptococcus faecalis ATCC 10541. Nature of the test: MIC, two-fold dilution method, Streptococcus faecalis ATCC 10541. The following applies: 10^6 CFU per ml, 37° C., 18 to 20 hours; for Antibacterial Activity (MIC): Muller Hinton Broth; for MIC: Enterococcus faecalis, ATCC10541, Muller Hinton Broth, read-out: Antibacterial Activity (MIC). The method, boiled down: as §1

Test [7] concerns Staphylococcus epidermidis ATCC 12228. Briefly: MIC, two-fold dilution method, Staphylococcus epidermidis ATCC 12228. The following applies: 10^6 CFU per ml, 37° C., 18 to 20 hours; for Antibacterial Activity (MIC): Muller Hinton Broth; for MIC: ATCC12228, Muller Hinton Broth, read-out: Antibacterial Activity (MIC). The method, boiled down:
as §1

`C=CCO/N=C(\C(=O)NC1C(=O)N2C(C(=O)[O-])=C(CSc3cc[n+](CC=C)c4cc(N5CCNCC5C)c(F)cc34)CS[C@H]12)c1csc(N)n1` (stereo partly drawn) [Compound I-36, 7-[(Z)-2-(2-aminothiazol-4-yl)-2-(allyloxyimino)acetamido]-3-[1-allyl-6-fluoro-7-(2-methylpiperazinyl)quinolinium-4-yl]thiomethyl-3-cephem4-carboxylate]: the “Antibacterial Activity (MIC)” value in test [1] is 0.78 µg/mL; in test [2], 0.78 µg/mL; in test [3], 0.39 µg/mL; in test [4] it was 1.56 µg/mL; in test [5], 1.56 µg/mL; in test [6] it was 0.39 µg/mL. Besides, the “Antibacterial Activity (MIC)” value in test [7] is 1.56 µg/mL.

On to `C=CCO/N=C(\C(=O)NC1C(=O)N2C(C(=O)[O-])=C(CSc3cc[n+](C4CC4)c4cc(N5CCN(C)CC5)c(F)cc34)CSC12)c1csc(N)n1` (stereo not drawn) [Compound I-26, 7-[(Z)-2-(2-aminothiazol-4-yl)-2-(allyloxyimino)acetamido]-3-[1-cyclopropyl-6-fluoro-7-(N-methylpiperazinyl)quinolinium-4-yl]thiomethyl-3-cephem-4-carboxylate], for which the MIC came to 0.2 µg/mL (≈ 0.271 µM) in test [1]; 0.39 µg/mL (≈ 0.528 µM) in test [2]; 0.1 µg/mL (≈ 0.135 µM) in test [3]; 6.25 µg/mL (≈ 8.46 µM) in test [4]; 0.39 µg/mL (≈ 0.528 µM) in test [5]; 0.2 µg/mL (≈ 0.271 µM) in test [6]. Moreover, the MIC in test [7] amounted to 1.56 µg/mL (≈ 2.11 µM).

Regarding `CO/N=C(\C(=O)NC1C(=O)N2C(C(=O)[O-])=C(CSc3cc[n+](C4CC4)c4cc(N5CCN(C)CC5)c(F)cc34)CSC12)c1csc(N)n1` (stereo not drawn) [Compound I-6, 7-[(Z)-2-(2-aminothiazol-4-yl)-2-(methoxyimino)acetamido]-3-[1-cyclopropyl-6-fluoro-7-(N-methylpiperazinyl)quinolinium-4-yl]thiomethyl-3-cephem-4-carboxylate], the MIC was determined as 0.1 µg/mL (≈ 0.14 µM) in test [1]; 0.39 µg/mL (≈ 0.547 µM) in test [2]; 0.39 µg/mL (≈ 0.547 µM) in test [3]; 12.5 µg/mL (≈ 17.5 µM) in test [4]; 1.56 µg/mL (≈ 2.19 µM) in test [5]; 0.2 µg/mL (≈ 0.281 µM) in test [6]. Also, in test [7], the MIC turned out to be 0.39 µg/mL (≈ 0.547 µM).

For `C#CCO/N=C(\C(=O)NC1C(=O)N2C(C(=O)[O-])=C(CSc3cc[n+](CC=C)c4cc(N5CCN(C)CC5)c(F)cc34)CSC12)c1csc(N)n1` (stereo not drawn) [Compound I-50, 7-[(Z)-2-(2-aminothiazol-4-yl)-2-(propargyloxyimino)acetamido]-3-[1-allyl-6-fluoro-7-(N-methylpiperazinyl)quinolinium-4-yl]thiomethyl-3-cephem-4-carboxylate], the minimum inhibitory concentration (MIC) in test [1] was 3.13 µg/mL (≈ 4.25 µM); in test [2] it was 3.13 µg/mL (≈ 4.25 µM); in test [3], 0.78 µg/mL (≈ 1.06 µM); in test [4], 3.13 µg/mL (≈ 4.25 µM); in test [5], 3.13 µg/mL (≈ 4.25 µM); in test [6] it was 1.56 µg/mL (≈ 2.12 µM). Further, the MIC in test [7] came out at 3.13 µg/mL (≈ 4.25 µM).

For `CO/N=C(\C(=O)NC1C(=O)N2C(C(=O)[O-])=C(CSc3cc[n+](C4CC4)c4cc(-n5cnc(C)c5)c(F)cc34)CSC12)c1csc(N)n1` (stereo not drawn) [Compound I-20, 7-[(Z)-2-(2-aminothiazol-4-yl)-2-(methoxyimino)acetamido]-3-[1-cyclopropyl-6-fluoro-7-(4-methylimidazolyl)quinolinium-4-yl]thiomethyl-3-cephem-4-carboxylate], the “Antibacterial Activity (MIC)” value in test [1] came out at 0.1 µg/mL; in test [2] it was 0.78 µg/mL; in test [3], 0.2 µg/mL; in test [4] it was 1.56 µg/mL; in test [5] it was 1.56 µg/mL; in test [6], 0.2 µg/mL. The “Antibacterial Activity (MIC)” value in test [7] stood at 0.39 µg/mL.

For `C#CCO/N=C(\C(=O)NC1C(=O)N2C(C(=O)[O-])=C(CSc3cc[n+](CC)c4cc(N5CCNCC5C)c(F)cc34)CS[C@H]12)c1csc(N)n1` (stereo partly drawn) [Compound I-48, 7-[(Z)-2-(2-aminothiazol-4-yl)-2-(propargyloxyimino)acetamido]-3-[1-ethyl-6-fluoro-7-(2-methylpiperazinyl)quinolinium-4-yl]thiomethyl-3-cephem-4-carboxylate], the “Antibacterial Activity (MIC)” value in test [1] stood at 1.56 µg/mL; in test [2], 0.39 µg/mL; in test [3], 0.1 µg/mL; in test [4] it was 3.13 µg/mL; in test [5] it was 1.56 µg/mL; in test [6], 0.39 µg/mL. Also, the “Antibacterial Activity (MIC)” value in test [7] was 0.78 µg/mL.

Turning to `C#CCO/N=C(\C(=O)NC1C(=O)N2C(C(=O)[O-])=C(CSc3cc[n+](CC=C)c4cc(N5CCNCC5)c(F)cc34)CS[C@H]12)c1csc(N)n1` (stereo partly drawn) [Compound I-49, 7-[(Z)-2-(2-aminothiazol-4-yl)-2-(propargyloxyimino)acetamido]-3-(1-allyl-6-fluoro-7-piperazinylquinolinium-4-yl)thiomethyl-3-cephem-4-carboxylate], the MIC in test [1] is 1.56 µg/mL (≈ 2.16 µM); in test [2], 1.56 µg/mL (≈ 2.16 µM); in test [3], 0.39 µg/mL (≈ 0.54 µM); in test [4] it was 1.56 µg/mL (≈ 2.16 µM); in test [5], 1.56 µg/mL (≈ 2.16 µM); in test [6], 0.78 µg/mL (≈ 1.08 µM). The MIC in test [7] amounted to 1.56 µg/mL (≈ 2.16 µM).

Turning to `CCN1CCN(c2cc3c(cc2F)c(SCC2=C(C(=O)[O-])N4C(=O)C(NC(=O)/C(=N\OC(C)(C)C(=O)O)c5csc(N)n5)C4SC2)cc[n+]3C2CC2)CC1` (stereo not drawn) [Compound I-59, 7-[(Z)-2-(2-aminothiazol-4-yl)-2-(2-carboxyprop-2-oxyimino)acetamido]-3-[1-cyclopropyl-6-fluoro-7-(1-ethylpiperazinyl)quinolinium-4-yl]thiomethyl-3-cephem-4-carboxylate], the minimum inhibitory concentration (MIC) in test [1] amounted to 0.39 µg/mL (≈ 0.488 µM); in test [2] it was 0.78 µg/mL (≈ 0.976 µM); in test [3], 0.39 µg/mL (≈ 0.488 µM); in test [4] it was 0.78 µg/mL (≈ 0.976 µM); in test [5], 0.78 µg/mL (≈ 0.976 µM); in test [6] it was 0.78 µg/mL (≈ 0.976 µM). In addition, in test [7], the MIC is 1.56 µg/mL (≈ 1.95 µM).

On to `C=CCO/N=C(\C(=O)NC1C(=O)N2C(C(=O)[O-])=C(CSc3cc[n+](C4CC4)c4cc(N5CCNCC5)c(F)cc34)CS[C@H]12)c1csc(N)n1` (stereo partly drawn) [Compound I-25, 7-[(Z)-2-(2-aminothiazol-4-yl)-2-(allyloxyimino)acetamido]-3-(1-cyclopropyl-6-fluoro-7-piperazinylquinolinium-4-yl)thiomethyl-3-cephem-4-carboxylate], for which the MIC in test [1] turned out to be 0.39 µg/mL (≈ 0.538 µM); in test [2], 0.78 µg/mL (≈ 1.08 µM); in test [3], 0.2 µg/mL (≈ 0.276 µM); in test [4], 6.25 µg/mL (≈ 8.62 µM); in test [5], 0.39 µg/mL (≈ 0.538 µM); in test [6], 0.2 µg/mL (≈ 0.276 µM). In addition, the MIC in test [7] is 0.78 µg/mL (≈ 1.08 µM).

`CC[n+]1ccc(SCC2=C(C(=O)[O-])N3C(=O)C(NC(=O)/C(=N\OC)c4csc(N)n4)C3SC2)c2cc(F)c(N3CCN(C)CC3)cc21` (stereo not drawn) [Compound I-10, 7-[(Z)-2-(2-aminothiazol-4-yl)-2-(methoxyimino)acetamido]-3-(1-ethyl-6-fluoro-7-(N-methylpiperazinyl)quinolinium-4-yl]thiomethyl-3-cephem-4-carboxylate]: the MIC in test [1] turned out to be 0.78 µg/mL (≈ 1.11 µM); in test [2], 0.39 µg/mL (≈ 0.556 µM); in test [3] it was 0.39 µg/mL (≈ 0.556 µM); in test [4], 12.5 µg/mL (≈ 17.8 µM); in test [5] it was 6.25 µg/mL (≈ 8.92 µM); in test [6], 1.56 µg/mL (≈ 2.23 µM). The minimum inhibitory concentration (MIC) in test [7] stood at 1.56 µg/mL (≈ 2.23 µM).

For the compound `CO/N=C(\C(=O)NC1C(=O)N2C(C(=O)[O-])=C(CSc3cc[n+](C4CC4)c4cc(N5CCNCC5)c(F)cc34)CS[C@H]12)c1csc(N)n1` (stereo partly drawn) [Compound I-5, 7-[(Z)-2-(2-aminothiazol-4-yl)-2-(methoxyimino)acetamido]-3-(1-cyclopropyl-6-fluoro-7-piperazinylquinolinium-4-yl)thiomethyl-3-cephem-4-carboxylate], the minimal inhibitory concentration (MIC) is 0.1 µg/mL (≈ 0.143 µM) in test [1]; 1.56 µg/mL (≈ 2.23 µM) in test [2]; 0.39 µg/mL (≈ 0.558 µM) in test [3]; 12.5 µg/mL (≈ 17.9 µM) in test [4]; 3.13 µg/mL (≈ 4.48 µM) in test [5]; 0.39 µg/mL (≈ 0.558 µM) in test [6]. For the same compound, in test [7], the MIC came to 0.78 µg/mL (≈ 1.12 µM).

As for `C#CCO/N=C(\C(=O)NC1C(=O)N2C(C(=O)[O-])=C(CSc3cc[n+](C4CC4)c4cc(N5CCNCC5C)c(F)cc34)CS[C@H]12)c1csc(N)n1` (stereo partly drawn) [Compound I-44, 7-[(Z)-2-(2-aminothiazol-4-yl)-2-(propargyloxyimino)acetamido]-3-[1-cyclopropyl-6-fluoro-7-(2-methylpiperazinyl)quinolinium-4-yl]thiomethyl-3-cephem-4-carboxylate], the “Antibacterial Activity (MIC)” value came to 0.78 µg/mL in test [1]; 0.39 µg/mL in test [2]; 0.05 µg/mL in test [3]; 1.56 µg/mL in test [4]; 1.56 µg/mL in test [5]; 0.2 µg/mL in test [6]. Also, the “Antibacterial Activity (MIC)” value in test [7] is 0.2 µg/mL.

In general, MIC refers to the least concentration at which growth counts as inhibited.
